The values that follow come from US20060128688A1, “Asenapine for the treatment of schizophrenia in a patient with overweight or predisposition for overweight” (priority 2003, published 2006).

Several values for one entry are separate records, joined by “and”; a condition that tells them apart may be missing. Equal values may be shown once. Read-outs that look alike come from different tables or passages of the source.

For data set [1], the system named is subjects with acute exacerbation of their schizophrenic illness. The experiment in a line: Randomized double blind, fixed-dose 6-week trial: efficacy on disease symptoms (PANSS). The class given is in vivo, human. Particulars: asenapine 5 mg twice a day sublingual, risperidone 3 mg twice daily, 6 weeks, compared with placebo.
The conditions of data set [2]: among atypical antipsychotics, literature review; cited from earlier work.
The mark [3] stands for this setting: All-Subjects-Treated Group, baseline to day 42 or final day of treatment.

Turning to `CN1C[C@@H]2c3ccccc3Oc3ccc(Cl)cc3[C@H]2C1` (relative stereo) [asenapine, trans-5-chloro-2-methyl-2,3,3a,12b-tetrahydro-1H-dibenz[2,3:6,7]oxepino[4,5-c]pyrrole], under “All-Subjects-Treated Group”, the “number of subjects with greater than 10% weight gain from baseline” value is listed as 1. Further, under setting [3], the “number of subjects (n) with clinically significant decrease of ≧7% from baseline in body weight” value is reported as 0; the “number of subjects (n) with clinically significant increase of ≧7% from baseline in body weight” value was found to be 2; the “subjects with clinically significant decrease of ≧7% from baseline in body weight, %” value turned out to be 0.0%; the “subjects with clinically significant weight gain (increase from baseline of ≧7%), %” value was 4% and 4.3%. Further, where the note is “All-Subjects-Treated Group, baseline to day 42 or final day of treatment, listed as Asenapine”, the “subjects with clinically significant weight gain (increase from baseline of ≧7%), %” value is 4.3%. The “increase in body weight from baseline” value (at end point, group result) amounted to 0.5%. In addition, the other side effects entry (overall conclusion of the 6-week trial) is reported as “minimal other side effects”. Further, the “efficacy in reducing the symptoms of schizophrenia” value in data set [1] was “significantly more effective than placebo”.
For `Cc1cc2c(s1)Nc1ccccc1N=C2N1CCN(C)CC1` [olanzapine], the “weight gain associated with the drug” value in data set [2] is on record as “largest weight gains”.
Turning to `OCCOCCN1CCN(C2=Nc3ccccc3Sc3ccccc32)CC1` [quetiapine], the “weight gain associated with the drug” value in data set [2] is “smallest”.
Turning to `Cc1nc2n(c(=O)c1CCN1CCC(c3noc4cc(F)ccc34)CC1)CCCC2` [risperidone, reference compound], the “weight gain associated with the drug” value in data set [2] is given as “modest weight changes that are not dose related”. Further, the “number of subjects with greater than 10% weight gain from baseline” value (All-Subjects-Treated Group) turned out to be 2. In addition, under setting [3], the “number of subjects (n) with clinically significant decrease of ≧7% from baseline in body weight” value is given as 1 and the “number of subjects (n) with clinically significant increase of ≧7% from baseline in body weight” value was 8. For the same compound, the “efficacy in reducing the symptoms of schizophrenia” value in data set [1] is reported as “significantly more effective than placebo”.
For `O=C1Cc2cc(CCN3CCN(c4nsc5ccccc45)CC3)c(Cl)cc2N1` [ziprasidone], the “weight gain associated with the drug” value in data set [2] was “smallest”.
